Test results reported in patent US8969360B2, “Compounds useful as inhibitors of ATR kinase” (Vertex Pharmaceuticals Incorporated, priority 2013, dated 2015).

Legend:
ATR kinase = target: T1, ATR kinase (Homo sapiens, UniProt Q13535); experiment: ATR Inhibition Assay (radioactive-phosphate incorporation); type: biochemical; details: Ki(app); 5 nM full-length ATR, 10 μM ATP, 800 μM target peptide, 25° C.
T1 construct: Assays were carried out at 25° C. in the presence of 5 nM full-length ATR
How it was run: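 Full-length ATR (5 nM) in 50 mM Tris/HCl pH 7.5, 10 mM MgCl2, 1 mM DTT, with 800 μM peptide substrate and 10 μM [γ-33P]ATP at 25 °C. Compounds (from 15 μM final, 3-fold dilutions, 7% DMSO) were preincubated 10 min; the reaction was stopped at 24 h. 33P incorporation was captured on phosphocellulose; Ki(app) was from non-linear regression of initial rates.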

[1] = tested on: HCT116 colorectal cancer cells; experiment: Cisplatin Sensitization Assay (96 h cell viability MTS); type: cell-based; details: concentration of compound required to reduce the IC50 of Cisplatin alone by at least 3-fold; HCT116, 96 h MTS
How it was run: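 HCT116 cells received compound and cisplatin together as a full matrix of 2-fold dilutions, each from a 10 μM top final concentration. After 96 h at 37 °C and 5% CO2, viability was read by MTS (1 h, A490). The value is the compound concentration that lowers the cisplatin IC50 at least 3-fold.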

T1 sequence (Q13535 whole entry): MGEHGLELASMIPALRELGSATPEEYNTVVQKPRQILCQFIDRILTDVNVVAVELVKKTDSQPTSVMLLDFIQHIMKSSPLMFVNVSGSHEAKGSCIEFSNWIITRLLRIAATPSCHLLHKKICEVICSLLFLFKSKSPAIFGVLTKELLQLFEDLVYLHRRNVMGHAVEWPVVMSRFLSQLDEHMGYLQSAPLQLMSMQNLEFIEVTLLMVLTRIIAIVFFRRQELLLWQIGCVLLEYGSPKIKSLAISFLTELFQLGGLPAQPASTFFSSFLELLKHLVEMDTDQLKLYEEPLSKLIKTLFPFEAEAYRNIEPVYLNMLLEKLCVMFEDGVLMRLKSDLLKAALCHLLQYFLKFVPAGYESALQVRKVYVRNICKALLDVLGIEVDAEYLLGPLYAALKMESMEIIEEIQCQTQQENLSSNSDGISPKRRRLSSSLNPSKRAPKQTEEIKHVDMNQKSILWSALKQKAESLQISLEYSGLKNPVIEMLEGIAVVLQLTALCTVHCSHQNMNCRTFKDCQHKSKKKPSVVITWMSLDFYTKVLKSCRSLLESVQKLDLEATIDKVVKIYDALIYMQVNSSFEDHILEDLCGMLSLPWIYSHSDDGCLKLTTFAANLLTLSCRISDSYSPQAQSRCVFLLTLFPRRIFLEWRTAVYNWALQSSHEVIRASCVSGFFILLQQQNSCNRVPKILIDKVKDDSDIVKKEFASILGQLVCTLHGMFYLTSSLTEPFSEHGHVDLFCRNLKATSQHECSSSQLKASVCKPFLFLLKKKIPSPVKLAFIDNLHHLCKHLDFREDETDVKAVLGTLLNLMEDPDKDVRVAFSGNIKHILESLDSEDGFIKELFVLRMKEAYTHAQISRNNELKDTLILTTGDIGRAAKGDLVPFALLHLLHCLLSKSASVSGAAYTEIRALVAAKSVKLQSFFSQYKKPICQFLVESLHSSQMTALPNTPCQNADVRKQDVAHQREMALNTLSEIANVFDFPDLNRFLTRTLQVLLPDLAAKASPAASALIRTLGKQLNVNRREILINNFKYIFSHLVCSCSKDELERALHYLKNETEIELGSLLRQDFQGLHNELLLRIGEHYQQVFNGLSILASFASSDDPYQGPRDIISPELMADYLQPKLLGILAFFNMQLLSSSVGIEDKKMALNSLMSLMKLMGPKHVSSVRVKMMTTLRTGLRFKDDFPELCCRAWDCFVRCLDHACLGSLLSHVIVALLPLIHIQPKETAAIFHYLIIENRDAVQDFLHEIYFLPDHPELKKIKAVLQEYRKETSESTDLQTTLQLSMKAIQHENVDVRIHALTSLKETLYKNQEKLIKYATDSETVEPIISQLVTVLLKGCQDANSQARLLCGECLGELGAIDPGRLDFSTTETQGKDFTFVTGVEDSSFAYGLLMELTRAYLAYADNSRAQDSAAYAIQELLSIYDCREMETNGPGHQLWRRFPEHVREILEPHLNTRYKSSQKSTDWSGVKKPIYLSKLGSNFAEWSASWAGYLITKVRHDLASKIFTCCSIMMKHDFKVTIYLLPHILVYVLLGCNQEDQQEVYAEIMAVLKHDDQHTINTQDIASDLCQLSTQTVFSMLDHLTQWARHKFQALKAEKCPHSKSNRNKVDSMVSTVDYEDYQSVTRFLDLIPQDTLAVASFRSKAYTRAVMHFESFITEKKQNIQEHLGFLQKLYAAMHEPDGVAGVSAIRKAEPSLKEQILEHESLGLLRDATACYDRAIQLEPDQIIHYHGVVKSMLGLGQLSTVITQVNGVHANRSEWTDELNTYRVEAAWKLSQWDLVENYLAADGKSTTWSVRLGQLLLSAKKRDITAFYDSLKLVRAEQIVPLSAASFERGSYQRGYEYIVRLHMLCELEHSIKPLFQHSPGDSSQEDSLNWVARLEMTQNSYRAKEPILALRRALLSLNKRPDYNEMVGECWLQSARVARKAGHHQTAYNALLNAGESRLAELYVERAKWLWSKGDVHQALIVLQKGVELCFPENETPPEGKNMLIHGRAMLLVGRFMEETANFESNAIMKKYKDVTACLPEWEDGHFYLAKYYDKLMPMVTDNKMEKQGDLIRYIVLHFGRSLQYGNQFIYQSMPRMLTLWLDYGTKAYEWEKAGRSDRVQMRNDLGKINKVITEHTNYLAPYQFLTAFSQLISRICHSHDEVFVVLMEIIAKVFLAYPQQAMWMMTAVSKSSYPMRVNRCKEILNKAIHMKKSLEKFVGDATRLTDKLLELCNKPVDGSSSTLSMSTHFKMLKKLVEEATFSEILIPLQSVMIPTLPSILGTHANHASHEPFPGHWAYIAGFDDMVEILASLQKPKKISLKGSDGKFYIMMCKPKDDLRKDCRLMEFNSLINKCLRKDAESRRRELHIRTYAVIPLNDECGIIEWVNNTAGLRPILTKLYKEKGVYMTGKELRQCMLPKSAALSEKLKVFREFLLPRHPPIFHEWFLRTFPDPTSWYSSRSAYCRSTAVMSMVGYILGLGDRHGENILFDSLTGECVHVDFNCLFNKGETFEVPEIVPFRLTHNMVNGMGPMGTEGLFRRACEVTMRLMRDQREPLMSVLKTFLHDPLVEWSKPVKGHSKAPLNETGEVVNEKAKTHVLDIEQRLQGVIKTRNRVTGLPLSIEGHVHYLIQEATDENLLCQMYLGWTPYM

CN(C)C1CCC(Oc2ccncc2NC(=O)c2c(N)nn3ccc(C(F)(F)F)nc23)CC1 (centres unmarked) [I-O-44, 2-amino-N-(4-(((1s,4s)-4-(dimethylamino)cyclohexyl)oxy)pyridin-3-yl)-5-(trifluoromethyl)pyrazolo[1,5-a]pyrimidine-3-carboxamide]
Ki (ATR kinase): 1000 to 5000 nM
Synergy with Cisplatin [1]: + (Compounds with a Cisplatin sensitization value >0.2 μM but <5 μM are marked with “+.”)

CN(C)Cc1ccc(Oc2ccncc2NC(=O)c2c(N)nn3ccc(C(F)(F)F)nc23)cn1 [I-O-45, 2-amino-N-(4-((6-((dimethylamino)methyl)pyridin-3-yl)oxy)pyridin-3-yl)-5-(trifluoromethyl)pyrazolo[1,5-a]pyrimidine-3-carboxamide]
Ki (ATR kinase): 10 to 1000 nM
Synergy with Cisplatin [1]: +++ (Compounds with a Cisplatin sensitization value of <0.02 μM are marked with “+++.”)

COc1cc(C)ncc1NC(=O)c1c(N)nn2ccc(C(F)(F)F)nc12 [I-O-46, 2-amino-N-(4-methoxy-6-methylpyridin-3-yl)-5-(trifluoromethyl)pyrazolo[1,5-a]pyrimidine-3-carboxamide]
Ki (ATR kinase): 10 to 1000 nM
Synergy with Cisplatin [1]: ++ (Compounds with a Cisplatin sensitization value>0.02 μM but <0.2 μM are marked with “++.”)

COc1cc(Cl)ncc1NC(=O)c1c(N)nn2ccc(C(F)(F)F)nc12 [I-O-47, 2-amino-N-(6-chloro-4-methoxypyridin-3-yl)-5-(trifluoromethyl)pyrazolo[1,5-a]pyrimidine-3-carboxamide]
Ki (ATR kinase): 10 to 1000 nM
Synergy with Cisplatin [1]: ++ (Compounds with a Cisplatin sensitization value>0.02 μM but <0.2 μM are marked with “++.”)

COc1c(Cl)cncc1NC(=O)c1c(N)nn2ccc(C(F)(F)F)nc12 [I-O-48, 2-amino-N-(5-chloro-4-methoxypyridin-3-yl)-5-(trifluoromethyl)pyrazolo[1,5-a]pyrimidine-3-carboxamide]
Ki (ATR kinase): 10 to 1000 nM
Synergy with Cisplatin [1]: ++ (Compounds with a Cisplatin sensitization value>0.02 μM but <0.2 μM are marked with “++.”)

CN1CCC(Oc2c(Cl)cncc2NC(=O)c2c(N)nn3ccc(C(F)(F)F)nc23)CC1 [I-O-49, 2-amino-N-(5-chloro-4-((1-methylpiperidin-4-yl)oxy)pyridin-3-yl)-5-(trifluoromethyl)pyrazolo[1,5-a]pyrimidine-3-carboxamide]
Ki (ATR kinase): 1000 to 5000 nM
Synergy with Cisplatin [1]: + (Compounds with a Cisplatin sensitization value >0.2 μM but <5 μM are marked with “+.”)

CN(C)CCOc1cc(Cl)ncc1NC(=O)c1c(N)nn2ccc(C(F)(F)F)nc12 [I-O-50, 2-amino-N-(6-chloro-4-(2-(dimethylamino)ethoxy)pyridin-3-yl)-5-(trifluoromethyl)pyrazolo[1,5-a]pyrimidine-3-carboxamide]
Ki (ATR kinase): 10 to 1000 nM
Synergy with Cisplatin [1]: ++ (Compounds with a Cisplatin sensitization value>0.02 μM but <0.2 μM are marked with “++.”)

CN(C)CCOc1cc(C(F)(F)F)ncc1NC(=O)c1c(N)nn2ccc(C(F)(F)F)nc12 [I-O-51, 2-amino-N-(4-(2-(dimethylamino)ethoxy)-6-(trifluoromethyl)pyridin-3-yl)-5-(trifluoromethyl)pyrazolo[1,5-a]pyrimidine-3-carboxamide]
Ki (ATR kinase): 10 to 1000 nM
Synergy with Cisplatin [1]: + (Compounds with a Cisplatin sensitization value >0.2 μM but <5 μM are marked with “+.”)

COc1ccncc1NC(=O)c1c(N)nn2ccc(C(C)(C)C#N)nc12 [I-O-52, 2-amino-5-(2-cyanopropan-2-yl)-N-(4-methoxypyridin-3-yl)pyrazolo[1,5-a]pyrimidine-3-carboxamide]
Ki (ATR kinase): 10 to 1000 nM
Synergy with Cisplatin [1]: +++ (Compounds with a Cisplatin sensitization value of <0.02 μM are marked with “+++.”)

COc1ccncc1NC(=O)c1c(N)nn2ccc(CO)nc12 [I-O-54, 2-amino-5-(hydroxymethyl)-N-(4-methoxypyridin-3-yl)pyrazolo[1,5-a]pyrimidine-3-carboxamide]
Ki (ATR kinase): 10 to 1000 nM
Synergy with Cisplatin [1]: ++ (Compounds with a Cisplatin sensitization value>0.02 μM but <0.2 μM are marked with “++.”)

C=CCOCc1ccn2nc(N)c(C(=O)Nc3cnccc3OC)c2n1 [I-O-55, 5-((allyloxy)methyl)-2-amino-N-(4-methoxypyridin-3-yl)pyrazolo[1,5-a]pyrimidine-3-carboxamide]
Ki (ATR kinase): 10 to 1000 nM
Synergy with Cisplatin [1]: +++ (Compounds with a Cisplatin sensitization value of <0.02 μM are marked with “+++.”)

COc1ccncc1NC(=O)c1c(N)nn2ccc(OC3COC3)nc12 [I-O-56, 2-amino-N-(4-methoxypyridin-3-yl)-5-(oxetan-3-yloxy)pyrazolo[1,5-a]pyrimidine-3-carboxamide]
Ki (ATR kinase): 10 to 1000 nM
Synergy with Cisplatin [1]: +++ (Compounds with a Cisplatin sensitization value of <0.02 μM are marked with “+++.”)

COc1ccncc1NC(=O)c1c(N)nn2ccc(OC3CCN(C)C3)nc12 (centres unmarked) [I-O-57, 2-amino-N-(4-methoxypyridin-3-yl)-5-((1-methylpyrrolidin-3-yl)oxy)pyrazolo[1,5-a]pyrimidine-3-carboxamide]
Ki (ATR kinase): 10 to 1000 nM
Synergy with Cisplatin [1]: ++ (Compounds with a Cisplatin sensitization value>0.02 μM but <0.2 μM are marked with “++.”)

COc1ccncc1NC(=O)c1c(N)nn2ccc(OC3CCCN(C)C3)nc12 (centres unmarked) [I-O-58, 2-amino-N-(4-methoxypyridin-3-yl)-5-((1-methylpiperidin-3-yl)oxy)pyrazolo[1,5-a]pyrimidine-3-carboxamide]
Ki (ATR kinase): 10 to 1000 nM
Synergy with Cisplatin [1]: ++ (Compounds with a Cisplatin sensitization value>0.02 μM but <0.2 μM are marked with “++.”)

COc1ccncc1NC(=O)c1c(N)nn2ccc(OCCN3CCC3)nc12 [I-O-59, 2-amino-5-(2-(azetidin-1-yl)ethoxy)-N-(4-methoxypyridin-3-yl)pyrazolo[1,5-a]pyrimidine-3-carboxamide]
Ki (ATR kinase): 10 to 1000 nM
Synergy with Cisplatin [1]: ++ (Compounds with a Cisplatin sensitization value>0.02 μM but <0.2 μM are marked with “++.”)

COc1ccncc1NC(=O)c1c(N)nn2ccc(OCCN3CCCC3)nc12 [I-O-60, 2-amino-N-(4-methoxypyridin-3-yl)-5-(2-(pyrrolidin-1-yl)ethoxy)pyrazolo[1,5-a]pyrimidine-3-carboxamide]
Ki (ATR kinase): 10 to 1000 nM
Synergy with Cisplatin [1]: ++ (Compounds with a Cisplatin sensitization value>0.02 μM but <0.2 μM are marked with “++.”)

COc1ccncc1NC(=O)c1c(N)nn2ccc(OC3CCN(C)CC3)nc12 [I-O-61, 2-amino-N-(4-methoxypyridin-3-yl)-5-((1-methylpiperidin-4-yl)oxy)pyrazolo[1,5-a]pyrimidine-3-carboxamide]
Ki (ATR kinase): 10 to 1000 nM
Synergy with Cisplatin [1]: ++ (Compounds with a Cisplatin sensitization value>0.02 μM but <0.2 μM are marked with “++.”)

COc1ccncc1NC(=O)c1c(N)nn2ccc(OCCN(C)C)nc12 [I-O-62, 2-amino-5-(2-(dimethylamino)ethoxy)-N-(4-methoxypyridin-3-yl)pyrazolo[1,5-a]pyrimidine-3-carboxamide]
Ki (ATR kinase): 10 to 1000 nM
Synergy with Cisplatin [1]: ++ (Compounds with a Cisplatin sensitization value>0.02 μM but <0.2 μM are marked with “++.”)

COc1ccncc1NC(=O)c1c(N)nn2ccc(OCCCN3CCC3)nc12 [I-O-63, 2-amino-5-(3-(azetidin-1-yl)propoxy)-N-(4-methoxypyridin-3-yl)pyrazolo[1,5-a]pyrimidine-3-carboxamide]
Ki (ATR kinase): 10 to 1000 nM
Synergy with Cisplatin [1]: ++ (Compounds with a Cisplatin sensitization value>0.02 μM but <0.2 μM are marked with “++.”)

CC(C)Oc1ccncc1NC(=O)c1c(N)nn2ccc(OCCN(C)C)nc12 [I-O-64, 2-amino-5-(2-(dimethylamino)ethoxy)-N-(4-isopropoxypyridin-3-yl)pyrazolo[1,5-a]pyrimidine-3-carboxamide]
Ki (ATR kinase): 1000 to 5000 nM
Synergy with Cisplatin [1]: + (Compounds with a Cisplatin sensitization value >0.2 μM but <5 μM are marked with “+.”)

COc1cc(Cl)ncc1NC(=O)c1c(N)nn2ccc(OCCN(C)C)nc12 [I-O-65, 2-amino-N-(6-chloro-4-methoxypyridin-3-yl)-5-(2-(dimethylamino)ethoxy)pyrazolo[1,5-a]pyrimidine-3-carboxamide]
Ki (ATR kinase): 10 to 1000 nM
Synergy with Cisplatin [1]: + (Compounds with a Cisplatin sensitization value >0.2 μM but <5 μM are marked with “+.”)

CNCc1ccn2nc(N)c(C(=O)Nc3cnccc3OC)c2n1 [I-O-66, 2-amino-N-(4-methoxypyridin-3-yl)-5-((methylamino)methyl)pyrazolo[1,5-a]pyrimidine-3-carboxamide]
Ki (ATR kinase): 10 to 1000 nM
Synergy with Cisplatin [1]: ++ (Compounds with a Cisplatin sensitization value>0.02 μM but <0.2 μM are marked with “++.”)

CCCNc1ccn2nc(N)c(C(=O)Nc3cnccc3OC)c2n1 [I-O-67, 2-amino-N-(4-methoxypyridin-3-yl)-5-(propylamino)pyrazolo[1,5-a]pyrimidine-3-carboxamide]
Ki (ATR kinase): 10 to 1000 nM
Synergy with Cisplatin [1]: ++ (Compounds with a Cisplatin sensitization value>0.02 μM but <0.2 μM are marked with “++.”)

COc1ccncc1NC(=O)c1c(N)nn2ccc(NCC3COC3)nc12 [I-O-68, 2-amino-N-(4-methoxypyridin-3-yl)-5-((oxetan-3-ylmethyl)amino)pyrazolo[1,5-a]pyrimidine-3-carboxamide]
Ki (ATR kinase): < 10 nM
Synergy with Cisplatin [1]: ++ (Compounds with a Cisplatin sensitization value>0.02 μM but <0.2 μM are marked with “++.”)

COc1ccncc1NC(=O)c1c(N)nn2ccc(NCCN(C)C)nc12 [I-O-70, 2-amino-5-((2-(dimethylamino)ethyl)amino)-N-(4-methoxypyridin-3-yl)pyrazolo[1,5-a]pyrimidine-3-carboxamide]
Ki (ATR kinase): 10 to 1000 nM
Synergy with Cisplatin [1]: + (Compounds with a Cisplatin sensitization value >0.2 μM but <5 μM are marked with “+.”)
